ChEMBL document CHEMBL1201862, “PubChem BioAssay data set” (2004)
The source made the active and inactive calls.

Legend:
[1] = rescue of ΔF508 CFTR function, airway epithelium – human bronchial epithelial cells, plate reader, cherry-pick, two tests, dose response (AID 743267); type: functional, cell-based
[2] = Late stage counterscreen for inhibitors of Trypanosoma brucei methionyl tRNA synthetase (MetRS): Luminescence-based cell-based high throughput dose response assay to identify compounds that are cytotoxic to Jurkat human T lymphocyte cells.; type: functional
[3] = COV434 cell viability loss – plate reader, dry powder, SA7, cytotoxicity control for PAX8 inhibitor project, dose response (AID 743145); type: functional, cell-based
[4] = PAX8-dependent cell viability loss – plate reader, dry powder, dose response (AID 743049); type: functional, cell-based
[5] = inhibitors acting on PAX2 in cells – cell-based, plate reader, dry powder samples, selectivity assay for PAX8 inhibitor project, dose response (AID 743048); type: functional;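 also: HEK293 cells carrying a WT1 promoter luciferase reporter driven by expressed Pax2; potency is for inhibition of Pax2 driven reporter signal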
[6] = cells
[7] = viability of BHK-21 cells – cell-based, secondary screen, cytotoxicity control for flavivirus guanylyltransferase probe project (AID 624078); type: functional
[8] = OVCAR8 cell viability loss – plate reader, dry powder samples, PAX8 project, dose response (AID 743197); type: functional, cell-based; details: OVCAR-8
[9] = general cell-killing toxicity readout – plate reader, dry powder samples, cytotoxicity control for PAX8 inhibitor project, dose response (AID 743021); type: functional, cell-based
[10] = OVCAR-3 cell viability loss – plate reader, dry powder samples, PAX8 inhibitor project, dose response (AID 743044); type: functional, cell-based
[11] = target: Paired box protein Pax-8 (Homo sapiens, UniProt Q06710); assay: PAX8 transcriptional activity inhibition in RMG-I – RMG-I cells, luciferase, cherry-pick, dose response (AID 687027); type: functional, cell-based;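 also: luciferase reporter driven by Pax8 target thyroperoxidase promoter measured by SteadyGlo luminescence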
Paired box protein Pax-8, sequence (Q06710 whole entry): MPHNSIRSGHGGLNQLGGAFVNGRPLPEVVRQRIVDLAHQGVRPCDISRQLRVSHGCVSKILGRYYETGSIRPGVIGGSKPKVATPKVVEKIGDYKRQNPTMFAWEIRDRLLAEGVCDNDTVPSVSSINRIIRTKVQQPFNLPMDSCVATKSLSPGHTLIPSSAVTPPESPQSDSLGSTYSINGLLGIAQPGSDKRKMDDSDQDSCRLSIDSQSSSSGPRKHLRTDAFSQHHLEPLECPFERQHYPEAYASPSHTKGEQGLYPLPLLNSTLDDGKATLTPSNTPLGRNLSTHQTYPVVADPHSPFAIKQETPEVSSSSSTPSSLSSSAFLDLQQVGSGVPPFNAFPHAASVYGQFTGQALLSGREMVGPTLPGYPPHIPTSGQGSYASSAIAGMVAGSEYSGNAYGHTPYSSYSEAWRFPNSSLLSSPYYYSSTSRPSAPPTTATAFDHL

[12] = inhibitors of non-replicating M. tuberculosis, dose response, luciferase, dry powder (AID 651619); type: functional; details: Mycobacterium tuberculosis
[13] = inhibitors of non-replicating M. tuberculosis, dose response, luciferase, dry powder (AID 651620); type: functional; details: Mycobacterium tuberculosis
[14] = target: Protein Wnt-3a (Mus musculus, UniProt P27467); assay: SAR analysis of small molecule antagonists of Gli-SUFU in a Wnt3a luminescent reporter assay.; type: functional
Protein Wnt-3a, sequence (P27467 whole entry): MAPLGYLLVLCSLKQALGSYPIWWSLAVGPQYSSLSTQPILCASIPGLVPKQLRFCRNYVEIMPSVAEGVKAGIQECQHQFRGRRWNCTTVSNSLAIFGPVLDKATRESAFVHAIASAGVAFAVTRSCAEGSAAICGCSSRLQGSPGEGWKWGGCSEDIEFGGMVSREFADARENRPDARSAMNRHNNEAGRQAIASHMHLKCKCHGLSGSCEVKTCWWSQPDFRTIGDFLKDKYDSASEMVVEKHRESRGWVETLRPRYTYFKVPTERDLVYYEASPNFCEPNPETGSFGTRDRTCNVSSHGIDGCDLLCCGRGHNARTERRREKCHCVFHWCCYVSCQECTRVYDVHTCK

With `CCOC(=O)c1[nH]c(C)c(C(=O)C2=C(O)C(=O)N(CCCN3CCOCC3)C2c2cccs2)c1C` (centres undefined) the AC50 [1] was 19.4 µM (active).
In the case of `O=C(CC=NOCc1ccc([N+](=O)[O-])cc1)Nc1ccc(Br)cc1`, the IC50 [2] is reported as > 83.3 µM (inactive).
For `COCC(=O)N1[C@H](CO)[C@H](c2ccc(-c3cccnc3)cc2)[C@@H]1C#N`, the AC50 [3] was 0.00824 µM (active), the AC50 [4] was > 70 µM (inactive) and the AC50 [5] was > 32 µM (inactive).
In the case of `O=C(O)c1ccc(-c2ccc(/C=C3\NC(=O)N(Cc4ccc(Cl)cc4)C3=O)o2)cc1`, the AC50 [6] is reported as 1.78 µM (active).
For `Cc1ccc(S(=O)(=O)Nc2cc(Sc3nc(C)cc(C)n3)c(O)c3ccccc23)cc1`, the CC50 [7] was 20.9 µM (active).
For `C[C@@H]1CCCCO[C@@H](CN(C)C(=O)c2ccccc2)[C@@H](C)CN([C@@H](C)CO)C(=O)c2cc(NC(=O)Nc3ccc(C(F)(F)F)cc3)ccc2O1`, the AC50 [8] was > 70 µM (inactive), the AC50 [9] was 44.3 µM (active) and the AC50 [10] was 7.75 µM (active). For the same molecule, the AC50 [11] was 8.77 µM (active).
With `Fc1ccc(CSc2nnc(-c3ccc(Cl)cc3)o2)cc1` the IC90 [12] was 2 µM (active) and the IC90 [13] was 2 µM (active).
For `O=C(Nc1cc(N2CCCC2)ncn1)c1ccccc1F`, the IC50 [14] was 0.696 µM (active).
